Test results reported in US20240216320A1, “COMPOSITIONS AND METHODS FOR TREATING SICKLE CELL DISEASE” (Augusta University Research Institute, Inc., priority 2019, published 2024).

How the values were obtained:
[1] = system: γ-globin mRNA in K562 cells; experiment: γ-globin transcription by RT-qPCR in K562 cells; format: cell-based; conditions: 48 h
Protocol: Initial studies were conducted in K562 cells to determine the ability of AN-233 to induce γ-globin transcription and HbF expression. K562 cells display characteristics of erythroid cells including expression of the ε, γ and α globin genes and these cells are useful for initial drug screening and discovery of potential HbF inducers.
K562 cells were treated with AN-233 for 48 h and globin gene transcription was analyzed by RT-qPCR. […]
(§1) K562 cells were cultured in Iscove's Modified Dulbecco medium (IMDM) with 10% fetal bovine serum, penicillin (100 U/mL) and streptomycin (0.1 mg/mL). Drug inductions for K562 cells were conducted for 48 h and cell viability evaluated with 0.4% Trypan blue exclusion. Cell counts were performed a dual chamber apparatus and the percentage viability obtained using an Automated Cell Counter (Bio-Rad).
Total RNA was extracted from cells using Trizol (Ambion, Carlsbad CA) and analyzed by RT-qPCR as previously published by our group. Gene-specific primers were used to quantify mRNA levels for γ-globin, β-globin and internal control glyceraldehyde-3-phosphate de-hydrogenase (GAPDH). All mRNA levels were normalized to GAPDH before analysis.

HbF in K562 cells [2] = experiment: Western blot of HbF levels in K562 cells; format: cell-based; conditions: 48 h, AN-233 dose-dependent
Protocol: as §1
(§2) Western blot analysis was performed using whole cell lysates generated with RIPA buffer (ThermoScientific, Rockford, IL) supplemented with proteinase and phosphatase inhibitor cocktails. For histone acetylation studies, nuclear lysates were prepared by suspending cells in buffer containing 20 mM HEPES, pH 7.9, 50 mM KCl, 420 mM NaCl, 0.1 mM EDTA, 1 mM DTT, 10% glycerol and protease inhibitor mixture for 30 min, followed by centrifugation. Antibodies against HbF (51-7), HbA (37-8), and Tata binding protein (TBP; N-12) were purchased from Santa Cruz Biotechnology (Dallas TX); antibodies against β-actin (A5316) and rabbit IgG (18140) were purchased from Sigma (St. Louis MO). Acetylated histone H3 (AcH3; 06-599) and AcH4 (06-866) antibodies were purchased from Millipore (Burlington, MA).

[3] = system: intracellular heme in K562 cells; experiment: QuantiChrom heme quantitation assay in K562 cells; format: cell-based; conditions: for heme levels in control experiments: ALA 0.5 and 2.0 mM, hemin 75 μM
Protocol: The total cellular heme content was determined using the QuantiChrom™ Heme Assay Kit (DIHM-250, BioAssay Systems, Hayward, CA) per the manufacturer's instructions. Briefly, 25 μL of cellular lysate was mixed with 100 μL of detection reagent. The mixture was incubated at room temperature for 5 min followed by measuring the absorbance at 400 nm on a microplate reader. The total heme concentration was calculated based on a formula provided by the manufacturer: Heme concentration=(OD^sample−OD^blank)/(OD^calibrator−OD^blank)×125× dilution factor. This value was normalized by total protein in each sample.

[4] = system: HbF in sickle erythroid precursors; experiment: F-cells and HbF MFI by flow cytometry in sickle erythroid precursors; format: cell-based, human
Protocol: (§3) For primary cultures, erythroid precursors were generated from peripheral blood mononuclear cells isolated from discard blood of sickle patients under an IRB exempt protocol. These cells were cultured in a two-phase liquid culture system previously published (Li, B., et al., Haematologica 103:e384-e387 (2018)).
(§4) During phase 1, cells were grown in Iscove's Dulecco Media with 15% fetal bovine serum, 15% human AB serum, 10 ng/mL interleukin-3, 50 ng/mL stem cell factor and 2 IU/mL of erythropoietin (Peprotech, Rocky Hill NJ). Phase 2 of culture initiated on day 7 with a similar medium without stem cell factor and interleukin-3. On day 8, erythroid precursors were treated with AN-233 (0.125 mM and 0.25 mM), ethanol (EtOH; […] and 0.016%) and the positive control HU (100 μM) for 48 h and harvested for the various analyses.
(§5) To measure percent HbF positive cells (F-cells), K562 cells and erythroid precursors were fixed with 1% formaldehyde, permeabilized with ice-cold acetone:methanol (4:1 ratio) and stained with fluorescein isothiocyanate (FITC) anti-HbF antibody (ab19365, Abcam Cambridge MA) and isotype control IgG antibody (MBS524511, MyBioSource, San Diego CA) was used to detect non-specific staining. The F-cells levels and HbF protein levels measured by mean fluorescence intensity (MFI) were analyzed on an LSR-II flow cytometer (BD Biosciences, San Jose CA) and FlowJo analysis to generate quantitative data.

β-YAC transgenic mice = experiment: Toxicity, body weight, blood counts and reticulocytes in β-YAC transgenic mice
Protocol: The β-YAC is a transgenic mouse model containing the full-length 81 kb human β-globin gene locus including the LCR and surrounding region. The five functional human globin genes 5′-ε-Gγ-Aγ-[…]-β-3′ are present and undergo normal developmental regulation with the γ-globin gene silenced shortly after birth. β-YAC mice (5-6 months old) were administered AN-233 suspended in water (200 or 300 mg/kg) 5 days/week for 4 weeks by intraperitoneal injection; five mice per group with 3 males and 2 females were treated. Hydroxyurea (100 mg/kg) was included as a positive control. Blood was collected by tail bleed at week 0, 2 and 4 and analyzed for automated complete blood counts with differential using a Micros 60 machine (HORIBA Medical/ABX Diagnostics). The level of F-cells and MFI were performed by flow cytometry. For reticulocyte counts, whole blood was stained with acridine orange and flow cytometry performed on an LSR-II flow cytometer (BD Biosciences).

[5] = system: sickle erythroid precursors; experiment: In vitro sickling assay under 2% oxygen; format: cell-based, human
Protocol: In vitro sickling studies were conducted as previously published by our group (Zhu, X., et al., Blood, 131:558-562 (2018)). Briefly, after drug inductions of sickle erythroid pre-cursors for 48 h, cells were incubated in 2% oxygen overnight and then fixed with 2% formaldehyde. Erythroid morphology was evaluated microscopically and the number of sickled cells per high power field manually counted for 1000 cells, per triplicates per condition.

[6] = system: eIF2αP (eukaryotic translation initiation factor 2α phosphorylation); experiment: Western blot of eIF2αP in K562 cells; format: cell-based; conditions: dose-dependent, maximal
Protocol: as §2
(§6) Since the biosynthesis of heme prosthetic group requires ALA as a precursor and AN-233 is hydrolyzed to BA and ALA, it was next determined whether heme levels are altered after treatments of K562 cells. Using a colorimetric quantitative assay, a 1.5-fold and 1.8-fold increase (p<0.05) in intracellular heme was observed after 0.25 mM and 0.5 mM AN-233 treatment respectively (FIG. 2A). […] Therefore, K562 cells were treated with AN-233 and phosphorylated and total HRI and eIF2αP levels were measured. […]

[7] = system: Heme-regulated inhibitor (HRI) kinase; experiment: Western blot of HRI in K562 cells; format: cell-based; conditions: dose-dependent, maximal
Protocol: as §2, §6

[8] = system: HbS in sickle erythroid precursors; experiment: Western blot of HbS in sickle erythroid precursors; format: cell-based, human; conditions: 0.25 mM
Protocol: as §3, §4
(§7) Western blot analysis was performed using whole cell lysates generated with RIPA buffer (ThermoScientific, Rockford, IL) supplemented with proteinase and phosphatase inhibitor cocktails. For histone acetylation studies, nuclear lysates were prepared by suspending cells in buffer containing 20 mM HEPES, pH 7.9, 50 mM KCl, 420 mM NaCl, 0.1 mM EDTA, 1 mM DTT, 10% glycerol and protease inhibitor mixture for 30 min, followed by centrifugation. […]

HbF in K562 cells [9] = experiment: HbF positive cells (F-cells) by flow cytometry in K562 cells; format: cell-based
Protocol: as §1, §5

[10] = system: HbF in β-YAC transgenic mice; experiment: HbF induction (F-cells, MFI) in β-YAC transgenic mice; format: in vivo, mouse
p38 MAPK = experiment: Western blot of phosphorylated p38 MAPK in K562 cells; format: cell-based; conditions: 0.25 mM
Protocol: as §2
The second active metabolite of AN-233 hydrolysis is BA. It was previously reported that HbF induction by BA occurs through p38 MAPK activation.

anemic C57BL mouse model = conditions: cited from earlier work
γ-globin promoter = experiment: ChIP assay, histone acetylation in γ-globin promoter; format: cell-based, human; conditions: for enrichment for AcH3 in the γ-globin promoter: compared to IgG control, dose-dependent
Protocol: (§8) ChIP assay was performed as previously published by our group with immunoprecipitations for AcH3, AcH4 and TBP antibodies (Santa Cruz Biotechnology) and rabbit IgG as a control. Primers used to quantify in vivo chromatin modifications are as follows: locus control region DNase I hypersensitive site 2 (LCR-HS2) forward […] (SEQ ID NO:1) and reverse […] (SEQ ID NO:2), γ-globin promoter (forward CTGAAACGGTCCCTGGCTA (SEQ ID NO:3), reverse […] (SEQ ID NO:4)), and β-globin promoter (forward […] (SEQ ID NO:5), reverse […] (SEQ ID NO:6)).

[11] = system: HbF in sickle erythroid precursors; experiment: Western blot of HbF in sickle erythroid precursors; format: cell-based, human
Protocol: as §3, §4, §7

[12] = system: acetylated histone H3 (AcH3); experiment: Western blot of acetylated histone H3 in nuclear lysates of sickle erythroid cells; format: cell-based, human
Protocol: as §2

β-globin gene promoter = experiment: ChIP assay, histone acetylation in β-globin gene promoter; format: cell-based, human
Protocol: as §8

LCR-HS2 = experiment: ChIP assay, histone acetylation in LCR-HS2; format: cell-based, human
Protocol: as §8

[13] = system: HbF in patients with β-thalassemia; conditions: cited from earlier work

NCC(=O)CCC(=O)O [ALA, δ-aminolevulinate]
increase in γ-globin mRNA levels ([1]; 0.125 mM): 1.5 fold | increase in HbF by Western blot (HbF in K562 cells [2]): 6 fold | heme levels in control experiments [3]: increased heme levels

CCCC(=O)OC(C)OC(=O)CCC(=O)CN (stereo not drawn) [AN-233, 1-(butyryloxy)ethyl-5-amino-4-oxopentanoate]
increase in F-cells ([4]; sickle erythroid precursors, 0.125 and 0.25 mM, 48 h, maximal): 2 fold | F-cells ([4]; sickle erythroid precursors, 0.125 and 0.25 mM, maximal, from 16.31%): 32.5% | increase in HbF measured by MFI ([4]; sickle erythroid precursors, 48 h): 1.5 fold | anti-proliferative effects on erythropoiesis (β-YAC transgenic mice; mouse, in vivo): without observing anti-proliferative effects | increase in reticulocytes (β-YAC transgenic mice; β-YAC mice, 300 mg/kg ip, week 4, p=0.01): 1.8 fold | reduction of the percentage of sickled erythroid precursors ([5]; 2% oxygen overnight): up to 56% | decrease in eIF2αP levels [6]: 50% | decrease in HRI [7]: 52% | increase in γ-globin mRNA levels ([1]; 0.125 mM): 1.8 fold | increase in γ-globin mRNA levels ([1]; 0.25 mM): 2.0 fold | HbS expression by Western blot [8]: without changing HbS expression | F-cells (HbF in K562 cells [9]; K562 cells, 0.125 and 0.25 mM, 48 h, maximum, 10% in EtOH treated controls): 19% | increase in F-cells ([10]; 200 mg/kg ip): 3.4 fold | increase in HbF measured by MFI ([10]; 200 mg/kg ip): 1.4 fold | F-cells ([10]; 200 mg/kg ip, from 15.46%): 52.5% | HbF measured by MFI ([10]; 200 mg/kg ip, from 588 units): 824 units | increase in F-cells ([10]; 300 mg/kg ip): 4.5 fold | increase in HbF measured by MFI ([10]; 300 mg/kg ip): 1.7 fold | F-cells ([10]; 300 mg/kg ip, from 13.5%): 60.6% | HbF measured by MFI ([10]; 300 mg/kg ip, from 447 units): 760 units | increase in phosphorylated p38 MAPK (p38 MAPK): 1.4 fold | toxicity (anemic C57BL mouse model; anemic C57BL mice, oral, 4 weeks, up to 400 mg/kg): without toxicity | hemoglobin levels (anemic C57BL mouse model; anemic C57BL mice, oral, 4 weeks): improved | histone acetylation in spleen tissue (anemic C57BL mouse model; tissue harvested 4 to 6 h after one oral dose): histone hyper-acetylation | AcH4 levels in the γ-globin promoter (γ-globin promoter; ChIP): increased | enrichment for AcH3 in the γ-globin promoter (γ-globin promoter; first (lower) value): 12 fold | enrichment for AcH3 in the γ-globin promoter (γ-globin promoter; second (higher) value): 30 fold | increase in HbF protein by Western blot ([11]; sickle erythroid precursors, 0.25 mM): 2.6 fold | global AcH3 levels in nuclear lysates [12]: increased global AcH3 levels | histone acetylation at the β-globin gene promoter (β-globin gene promoter): no significant changes | increase in intracellular heme ([3]; 0.25 mM): 1.5 fold | increase in intracellular heme ([3]; 0.5 mM): 1.8 fold | increase in AcH3 in LCR-HS2 (LCR-HS2): 12.5 fold | increase in AcH4 in LCR-HS2 (LCR-HS2): 5 fold

CCCC(=O)O [BA, butyric acid]
increase in γ-globin mRNA levels ([1]; 0.125 mM): 3 fold | increase in HbF by Western blot (HbF in K562 cells [2]): 2 fold

NC(=O)NO [HU, hydroxyurea]
HbF measured by MFI, compared with AN-233 ([4]; sickle erythroid precursors, HU 100 μM): comparable | blood counts (Hb, hematocrit, white blood cells, platelets) (β-YAC transgenic mice; β-YAC mice, 4-week treatment, AN-233 at both doses, HU 100 mg/kg): decreased total Hb, hematocrit, and white blood cell and platelet counts | increase in reticulocytes (β-YAC transgenic mice; β-YAC mice, HU 100 mg/kg ip, week 4, p=0.002): 1.9 fold | body weights (β-YAC transgenic mice; β-YAC mice, ip, 4 weeks of treatment, all groups): normal body weights were maintained | anti-sickling effect, compared with AN-233 ([5]; 2% oxygen overnight, HU): similar | γ-globin mRNA induction ([1]; HU control): 1.7 fold

C[S+]([O-])c1ccc(-c2nc(-c3ccncc3)c(-c3ccc(F)cc3)[nH]2)cc1 (stereo not drawn) [SB203580, reference compound]
effect of pretreatment on F-cells and MFI ([4]; SB203580 pretreatment, at both AN-233 concentrations): reduced F-cells and MFI levels | sickled erythroid progenitor levels after pretreatment ([5]; SB203580 pretreatment before AN-233, 2% oxygen): higher sickled erythroid progenitor levels | decrease in F-cell levels (HbF in K562 cells [9]; pretreatment with SB203580 10 μM followed by 0.25 mM AN-233): 30% | effect on AN-233 HbF protein increase by Western blot ([11]; SB203580 treatment with 0.25 mM AN-233): inhibited

CCC(C)(C)C(=O)[O-].[Na+] [sodium dimethylbutyrate]
patients with HbF induction [13]: 70 % of patients

hemin [reference compound]
heme levels in control experiments [3]: increased heme levels
